{
  "source": "ChEMBL document CHEMBL5390261",
  "about": "“Agents for the Treatment of Gout: Current Advances and Future Perspectives” (J Med Chem, 2023)",
  "key": {"[1]": {"molecular_target": "T1, Xanthine dehydrogenase/oxidase (Homo sapiens, UniProt P47989)", "T1 sequence (P47989 whole entry)": "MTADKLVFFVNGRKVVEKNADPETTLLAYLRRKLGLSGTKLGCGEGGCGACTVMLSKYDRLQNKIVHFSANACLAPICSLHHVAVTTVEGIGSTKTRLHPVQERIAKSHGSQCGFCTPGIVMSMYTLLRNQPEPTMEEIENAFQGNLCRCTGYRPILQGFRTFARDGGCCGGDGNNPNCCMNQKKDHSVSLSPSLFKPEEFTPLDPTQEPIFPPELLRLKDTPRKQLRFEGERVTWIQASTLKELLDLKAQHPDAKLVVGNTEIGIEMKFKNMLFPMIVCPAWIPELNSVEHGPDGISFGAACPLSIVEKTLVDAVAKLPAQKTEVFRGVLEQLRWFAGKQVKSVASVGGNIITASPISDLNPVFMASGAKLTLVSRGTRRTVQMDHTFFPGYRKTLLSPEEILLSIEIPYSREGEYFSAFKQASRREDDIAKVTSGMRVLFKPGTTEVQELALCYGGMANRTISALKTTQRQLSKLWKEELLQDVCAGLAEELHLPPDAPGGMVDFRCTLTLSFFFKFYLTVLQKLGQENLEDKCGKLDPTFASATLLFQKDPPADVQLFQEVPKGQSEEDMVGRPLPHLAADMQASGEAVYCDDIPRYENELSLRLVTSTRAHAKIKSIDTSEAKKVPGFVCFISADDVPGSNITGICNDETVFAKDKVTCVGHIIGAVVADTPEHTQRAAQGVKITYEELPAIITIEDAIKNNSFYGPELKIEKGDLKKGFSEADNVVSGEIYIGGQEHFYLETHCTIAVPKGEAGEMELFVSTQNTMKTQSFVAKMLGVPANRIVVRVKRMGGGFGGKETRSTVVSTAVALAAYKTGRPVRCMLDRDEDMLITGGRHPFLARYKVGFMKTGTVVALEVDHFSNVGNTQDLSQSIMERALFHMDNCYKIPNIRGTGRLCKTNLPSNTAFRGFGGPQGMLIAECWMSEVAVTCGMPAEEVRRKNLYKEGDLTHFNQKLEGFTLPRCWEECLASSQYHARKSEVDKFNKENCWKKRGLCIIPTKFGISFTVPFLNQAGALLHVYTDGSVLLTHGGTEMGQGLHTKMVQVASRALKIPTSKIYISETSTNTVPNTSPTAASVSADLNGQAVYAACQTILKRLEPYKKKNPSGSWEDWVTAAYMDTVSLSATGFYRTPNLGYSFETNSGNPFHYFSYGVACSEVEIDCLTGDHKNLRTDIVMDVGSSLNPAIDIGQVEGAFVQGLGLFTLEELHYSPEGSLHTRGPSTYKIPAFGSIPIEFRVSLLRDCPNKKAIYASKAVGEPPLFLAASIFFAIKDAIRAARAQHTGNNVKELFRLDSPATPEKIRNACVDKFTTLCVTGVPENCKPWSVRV", "assay": "Inhibition of XO (unknown origin) by microtitre plate analysis"}, "[2]": {"molecular_target": "T1, Xanthine dehydrogenase/oxidase", "assay": "Inhibition of XO (unknown origin) using xanthine as substrate preincubated for 3 hrs followed by substrate addition by UV-Vis spectrophotometric analysis"}, "[3]": {"molecular_target": "T1, Xanthine dehydrogenase/oxidase", "assay": "Inhibition of XO (unknown origin) using xanthine as substrate assessed as reduction in uric acid formation by FluoSTAR OPTIMA plate reader analysis"}, "[4]": {"molecular_target": "Xanthine dehydrogenase/oxidase (Bos taurus, UniProt P80457)", "sequence (P80457 whole entry)": "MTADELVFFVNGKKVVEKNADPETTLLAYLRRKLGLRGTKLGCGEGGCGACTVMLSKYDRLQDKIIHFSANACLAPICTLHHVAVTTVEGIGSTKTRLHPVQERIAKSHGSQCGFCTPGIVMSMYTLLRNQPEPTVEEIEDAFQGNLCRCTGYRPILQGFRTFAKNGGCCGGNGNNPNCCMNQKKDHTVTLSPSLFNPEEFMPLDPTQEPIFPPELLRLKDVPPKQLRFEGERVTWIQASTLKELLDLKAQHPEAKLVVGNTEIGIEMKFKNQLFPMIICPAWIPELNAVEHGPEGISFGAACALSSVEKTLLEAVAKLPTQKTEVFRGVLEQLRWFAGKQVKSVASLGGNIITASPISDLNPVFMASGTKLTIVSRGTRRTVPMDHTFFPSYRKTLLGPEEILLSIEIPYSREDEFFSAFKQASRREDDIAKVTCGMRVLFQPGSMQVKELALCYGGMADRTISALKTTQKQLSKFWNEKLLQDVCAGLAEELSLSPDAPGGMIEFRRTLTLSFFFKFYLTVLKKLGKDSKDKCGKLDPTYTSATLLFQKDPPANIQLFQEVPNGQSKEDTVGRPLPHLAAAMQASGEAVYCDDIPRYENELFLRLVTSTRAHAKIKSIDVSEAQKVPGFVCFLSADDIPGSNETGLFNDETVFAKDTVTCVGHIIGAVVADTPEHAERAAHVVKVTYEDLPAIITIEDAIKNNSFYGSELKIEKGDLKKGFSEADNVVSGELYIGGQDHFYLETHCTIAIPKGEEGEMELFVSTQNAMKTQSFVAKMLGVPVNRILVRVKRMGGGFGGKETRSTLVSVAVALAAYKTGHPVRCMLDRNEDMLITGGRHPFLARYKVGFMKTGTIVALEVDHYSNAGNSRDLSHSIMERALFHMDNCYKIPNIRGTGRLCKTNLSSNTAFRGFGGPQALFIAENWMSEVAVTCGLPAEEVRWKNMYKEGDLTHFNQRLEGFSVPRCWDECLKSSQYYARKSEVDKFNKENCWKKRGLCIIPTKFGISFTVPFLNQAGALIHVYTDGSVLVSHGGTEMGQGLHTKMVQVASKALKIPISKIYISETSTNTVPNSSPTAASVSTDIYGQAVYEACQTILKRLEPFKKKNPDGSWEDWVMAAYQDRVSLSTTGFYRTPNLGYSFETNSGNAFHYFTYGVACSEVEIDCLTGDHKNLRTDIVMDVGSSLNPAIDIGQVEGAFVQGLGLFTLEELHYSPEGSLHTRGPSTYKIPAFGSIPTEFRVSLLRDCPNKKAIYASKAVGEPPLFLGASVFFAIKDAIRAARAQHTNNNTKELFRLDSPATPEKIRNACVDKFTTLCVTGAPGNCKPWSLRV", "assay": "Inhibition of Bovine milk xanthine oxidase using xanthine as substrate assessed as decrease in uric acid level preincubated for 5 mins followed by substrate addition by spectrophotometric analysis"}, "[5]": {"molecular_target": "T1, Xanthine dehydrogenase/oxidase", "assay": "Inhibition of XO (unknown origin)"}, "[6]": {"molecular_target": "T1, Xanthine dehydrogenase/oxidase", "assay": "Inhibition of XO (unknown origin) using xanthine as substrate assessed as reduction in uric acid formation by double beam spectrophotometric analysis"}},
  "data": [
    {"smiles": "O=c1ccc2cc(O)c(O)cc2o1", "note": "[ESCULETIN]", "values": [
      {"measurement": "IC50", "setting": "[1]", "value": 42000, "unit": "nM"}
    ]},
    {"smiles": "O=c1cc(-c2ccccc2)oc2cc(O)cc(O)c12", "note": "[CHRYSIN]", "values": [
      {"measurement": "IC50", "setting": "[2]", "value": 1260, "unit": "nM"}
    ]},
    {"smiles": "COc1cc(O)cc2c(=O)oc(O)c(C)c12", "values": [
      {"measurement": "IC50", "setting": "[1]", "value": 2970, "unit": "nM"}
    ]},
    {"smiles": "COc1ccc([C@@H]2CC(=O)c3c(O)cc(O)cc3O2)cc1O", "note": "[HESPERETIN]", "values": [
      {"measurement": "IC50", "setting": "[3]", "value": 840, "unit": "nM"}
    ]},
    {"smiles": "O=c1oc2ccccc2c2c1C(c1cccs1)C=C(c1ccccc1)O2", "note": "(configuration not stated)", "values": [
      {"measurement": "IC50", "setting": "[4]", "value": 2210, "unit": "nM"}
    ]},
    {"smiles": "O=c1c(-c2ccc(O)cc2)coc2cc(O)cc(O)c12", "note": "[GENISTEIN]", "values": [
      {"measurement": "IC50", "setting": "[5]", "value": 3530, "unit": "nM"}
    ]},
    {"smiles": "O=c1oc2c(O)ccc(-c3oc4cc(O)cc(O)c4c(=O)c3O)c2s1", "values": [
      {"measurement": "IC50", "setting": "[6]", "value": 50, "unit": "nM"}
    ]}
  ]
}
